System: caspase-3/7 in panel of 78 cancer cell lines
Experiment: Cell panel CaspaseGlo-3/7 apoptosis induction
Assay type: cell-based, human
Procedure: A panel of 78 cancer cell lines harboring mutant and wild-type RAS was selected for screening at Crown Bioscience (Supplementary Table S2). The panel consisted of cell lines with any substitution at position 12 of KRAS, cell lines with any substitutions at position 61 of NRAS, and cell lines with a BRAF^V600E mutation. […] Cells were incubated for 120 hours prior to measurement of adenosine triphosphate (ATP) levels using the CellTiter-Glo Luminescent Cell Viability Assay (CTG; Promega, G7572), a method of determining the number of metabolically active cells based on quantitation of cellular ATP, according to the manufacturer's instructions. To measure induction of apoptosis, cells were incubated with RMC-6236 for 48 hours prior to measuring cleavage of a proluminescent caspase-3/7 DEVD-aminoluciferin substrate using the CaspaseGlo-3/7 Assay (Promega, G8092) according to the manufacturer’s instructions.

Structure (SMILES): CCn1c(-c2cc(N3CCN(C)CC3)cnc2[C@H](C)OC)c2c3cc(ccc31)-c1csc(n1)C[C@H](NC(=O)[C@H]1C[C@@H]1C)C(=O)N1CCC[C@H](N1)C(=O)OCC(C)(C)C2 [RMC-6236]
- Caspase-3/7 Activation (EC200, nM) (A375, BRAF V600E, Skin): >100 nM
- Caspase-3/7 Activation (EC200, nM) (A427, KRAS G12D, Lung): >100 nM
- Caspase-3/7 Activation (EC200, nM) (A549, KRAS G12S, Lung): >100 nM
- Caspase-3/7 Activation (EC200, nM) (AGS, KRAS G12D, Stomach): >100 nM
- Caspase-3/7 Activation (EC200, nM) (ASH3, NRAS Q61R, Head and Neck/Thyroid): >100 nM
- Caspase-3/7 Activation (EC200, nM) (ASPC1, KRAS G12D, Pancreas): >100 nM
- Caspase-3/7 Activation (EC200, nM) (CAL62, KRAS G12R, Head and Neck/Thyroid): 39.7 nM
- Caspase-3/7 Activation (EC200, nM) (CALU1, KRAS G12C, Lung): 5.2 nM
- Caspase-3/7 Activation (EC200, nM) (CAPAN1, KRAS G12V, Pancreas): >100 nM
- Caspase-3/7 Activation (EC200, nM) (CAPAN2, KRAS G12V, Pancreas): >100 nM
- Caspase-3/7 Activation (EC200, nM) (CFPAC1, KRAS G12V, Pancreas): 20.2 nM
- Caspase-3/7 Activation (EC200, nM) (CHP212, NRAS Q61K, Brain and Nerves): >100 nM
- Caspase-3/7 Activation (EC200, nM) (COC1, KRAS G12D, Ovary): >100 nM
- Caspase-3/7 Activation (EC200, nM) (COLO201, BRAF V600E, Intestine/Large/Colorectum): >100 nM
- Caspase-3/7 Activation (EC200, nM) (CORL23, KRAS G12V, Lung): 32.2 nM
- Caspase-3/7 Activation (EC200, nM) (HCC15, NRAS Q61K, Lung): >100 nM
- Caspase-3/7 Activation (EC200, nM) (HCC44, KRAS G12C, Lung): >100 nM
- Caspase-3/7 Activation (EC200, nM) (HEC1A, KRAS G12D, Uterus): >100 nM
- Caspase-3/7 Activation (EC200, nM) (HEPG2, NRAS Q61L, Liver): 27.1 nM
- Caspase-3/7 Activation (EC200, nM) (HM7, KRAS G12D, Intestine/Large/Colorectum): >100 nM
- Caspase-3/7 Activation (EC200, nM) (HPAC, KRAS G12D, Pancreas): >100 nM
- Caspase-3/7 Activation (EC200, nM) (HPAFII, KRAS G12D, Pancreas): 29.6 nM
- Caspase-3/7 Activation (EC200, nM) (HT1080, NRAS Q61K, Soft tissue): 59.6 nM
- Caspase-3/7 Activation (EC200, nM) (HUCCT1, KRAS G12D, Liver/Bile duct): 46.2 nM
- Caspase-3/7 Activation (EC200, nM) (HUPT4, KRAS G12V, Pancreas): >100 nM
- Caspase-3/7 Activation (EC200, nM) (KP4, KRAS G12D, Pancreas): >100 nM
- cell lines exhibiting at least a 2-fold increase in caspase activation (KRAS^G12X and NRAS^Q61X cell lines): 40%
- cell lines exhibiting at least a 2-fold increase in caspase activation (KRAS^G12X cell lines): 28 out of 62
- Caspase-3/7 Activation (EC200, nM) (KYSE410, KRAS G12C, HN/Esophagus): 19.5 nM
- Caspase-3/7 Activation (EC200, nM) (LCLC97TM1, KRAS G12V, Lung): 36.9 nM
- Caspase-3/7 Activation (EC200, nM) (LS123, KRAS G12S, Intestine/Large/Colorectum): >100 nM
- Caspase-3/7 Activation (EC200, nM) (LS174T, KRAS G12D, Intestine/Large/Colorectum): >100 nM
- Caspase-3/7 Activation (EC200, nM) (LS180, KRAS G12D, Intestine/Large/Colorectum): >100 nM
- Caspase-3/7 Activation (EC200, nM) (LS513, KRAS G12D, Intestine/Large/Colorectum): 11.0 nM
- Caspase-3/7 Activation (EC200, nM) (MIAPACA2, KRAS G12C, Pancreas): >100 nM
- Caspase-3/7 Activation (EC200, nM) (NCIH23, KRAS G12C, Lung): >100 nM
- Caspase-3/7 Activation (EC200, nM) (NCIH358, KRAS G12C, Lung): 29.7 nM
- Caspase-3/7 Activation (EC200, nM) (NCIH441, KRAS G12V, Lung): >100 nM
- Caspase-3/7 Activation (EC200, nM) (NCIH727, KRAS G12V, Lung): 11.9 nM
- Caspase-3/7 Activation (EC200, nM) (NCIH1299, NRAS Q61K, Lung): >100 nM
- Caspase-3/7 Activation (EC200, nM) (NCIH1373, KRAS G12C, Lung): 79.6 nM
- Caspase-3/7 Activation (EC200, nM) (NCIH1792, KRAS G12C, Lung): 6.6 nM
- Caspase-3/7 Activation (EC200, nM) (NCIH2009, KRAS G12A, Lung): 90.2 nM
- Caspase-3/7 Activation (EC200, nM) (NCIH2087, NRAS Q61K, Lung): 5.1 nM
- Caspase-3/7 Activation (EC200, nM) (NCIH2122, KRAS G12C, Lung): 57.5 nM
- Caspase-3/7 Activation (EC200, nM) (NOZ, KRAS G12V, Liver/Bile duct): 23.6 nM
- cell lines exhibiting at least a 2-fold increase in caspase activation (NRAS^Q61X cell lines): 5 out of 13
- Caspase-3/7 Activation (EC200, nM) (OVCAR5, KRAS G12V, Ovary): 2.4 nM
- Caspase-3/7 Activation (EC200, nM) (PANC1, KRAS G12D, Pancreas): >100 nM
- Caspase-3/7 Activation (EC200, nM) (PANC0327, KRAS G12V, Pancreas): >100 nM
- Caspase-3/7 Activation (EC200, nM) (PANC0504, KRAS G12D, Pancreas): 4.8 nM
- Caspase-3/7 Activation (EC200, nM) (PANC1005, KRAS G12D, Pancreas): 25.2 nM
- Caspase-3/7 Activation (EC200, nM) (PL45, KRAS G12D, Pancreas): 83.1 nM
- Caspase-3/7 Activation (EC200, nM) (RBE, KRAS G12V, Liver/Bile duct): >100 nM
- Caspase-3/7 Activation (EC200, nM) (RKO*, BRAF V600E, Intestine/Large/Colorectum): >100 nM
- Caspase-3/7 Activation (EC200, nM) (SHP77, KRAS G12V, Lung): >100 nM
- Caspase-3/7 Activation (EC200, nM) (SKCO1, KRAS G12V, Intestine/Large/Colorectum): 9.0 nM
- Caspase-3/7 Activation (EC200, nM) (SKLU1, KRAS G12D, Lung): 29.7 nM
- Caspase-3/7 Activation (EC200, nM) (SKMEL2, NRAS Q61R, Skin): 26.0 nM
- Caspase-3/7 Activation (EC200, nM) (SKNAS, NRAS Q61K, Brain and Nerves): >100 nM
- Caspase-3/7 Activation (EC200, nM) (SKNSH, NRAS Q61K, Brain and Nerves): >100 nM
- Caspase-3/7 Activation (EC200, nM) (SNU1, KRAS G12D, Stomach): >100 nM
- Caspase-3/7 Activation (EC200, nM) (SNU387, NRAS Q61K, Liver): >100 nM
- Caspase-3/7 Activation (EC200, nM) (SNU601, KRAS G12D, Stomach): 73.1 nM
- Caspase-3/7 Activation (EC200, nM) (SNU719, NRAS Q61L, Stomach): 57.7 nM
- Caspase-3/7 Activation (EC200, nM) (SNUC2A, KRAS G12D, Intestine/Large/Colorectum): >100 nM
- Caspase-3/7 Activation (EC200, nM) (SU8686, KRAS G12D, Pancreas): 61.9 nM
- Caspase-3/7 Activation (EC200, nM) (SW403, KRAS G12V, Intestine/Large/Colorectum): >100 nM
- Caspase-3/7 Activation (EC200, nM) (SW480, KRAS G12V, Intestine/Large/Colorectum): >100 nM
- Caspase-3/7 Activation (EC200, nM) (SW620, KRAS G12V, Intestine/Large/Colorectum): >100 nM
- Caspase-3/7 Activation (EC200, nM) (SW626, KRAS G12V, Ovary): >100 nM
- Caspase-3/7 Activation (EC200, nM) (SW756, KRAS G12C, Ovary): >100 nM
- Caspase-3/7 Activation (EC200, nM) (SW837, KRAS G12C, Intestine/Large/Colorectum): >100 nM
- Caspase-3/7 Activation (EC200, nM) (SW900, KRAS G12V, Lung): 3.2 nM
- Caspase-3/7 Activation (EC200, nM) (SW1116, KRAS G12A, Intestine/Large/Colorectum): >100 nM
- Caspase-3/7 Activation (EC200, nM) (SW1271, NRAS Q61R, Lung): >100 nM
- Caspase-3/7 Activation (EC200, nM) (SW1463, KRAS G12C, Intestine/Large/Colorectum): 28.5 nM
- Caspase-3/7 Activation (EC200, nM) (SW1573, KRAS G12C, Lung): >100 nM
- Caspase-3/7 Activation (EC200, nM) (SW1990, KRAS G12D, Pancreas): 97.1 nM
- Caspase-3/7 Activation (EC200, nM) (UMUC3, KRAS G12C, Bladder): 99.8 nM
- Caspase-3/7 Activation (EC200, nM) (YCC2, KRAS G12S, Stomach): >100 nM
